What was measured:
Bos taurus = species on record: Bos taurus; test: Specific activity against Protein kinase A (PKA) from bovine heart
[1] = biological target: Casein kinase II (Homo sapiens) (UniProt P67870+P68400+P19784); test: Specific activity against Casein kinase II (CK II); format: protein-complex assay; settings: Bos taurus
[2] = biological target: Cyclin-dependent kinase 1/cyclin B (Homo sapiens) (UniProt P06493+P14635+Q8WWL7+O95067); test: Specific activity against Cyclin dependent kinase 1-cyclin B; format: protein-complex assay
[3] = biological target: Cyclin-dependent kinase 1/cyclin B (Homo sapiens, UniProt P06493); test: Inhibition of Cyclin dependent kinase 1-cyclinB; format: protein-complex assay
[4] = Inhibition of catalytic subunit of protein kinase A (PKA) from bovine heart; set-up: species or system Bos taurus

Specific activity (nM Pi min-1 (mg of protein)-1) (Bos taurus): 4
Specific activity (uM Pi/min/mg protein) [1]: 0.4
Specific activity (nM Pi min-1 (mg of protein)-1) [2]: 0.4
IC50 [3]: > 100 µM
IC50 [4]: > 100 µM
Structure (SMILES): Cn1sc(=O)n(Cc2ccccc2)c1=O

— ChEMBL document CHEMBL1135834, “First non-ATP competitive glycogen synthase kinase 3 beta (GSK-3beta) inhibitors: thiadiazolidinones (TDZD) as potential drugs for the treatment of Alzheimer's disease” (J Med Chem, 2002)
